# Results as given in patent publication US10105344B2, “Methods of reducing blood lactate concentration” (Stokely-Van Camp, Inc., priority 2010, dated 2018).
# Assays:
# C2C12 cells = test: Muscle cell assay: lactate concentration in C2C12 cells after electrical pulse stimulation; assay type: cell-based, Mouse
# Procedure: Mouse C2C12 myoblasts are purchased from American Type Culture Collection (ATCC; Manassas, Va.) and grown to 90% confluence in high glucose Dubecco's Modified Eagle media (DMEM) with 10% fetal bovine serum (FBS). Myoblasts from the purchased lot are grown in T75 flasks and subcultured >5 times prior to plating in collagen coated six-well plates for experimentation. To induce myotube differentiation FBS containing media is replaced with 2% horse serum containing media or serum free media for 5-7 days. Myoblasts are grown and myotubes are maintained with or without antibiotics in a 37° C., 5% CO2 incubator. Electrical pulsing is applied to the myotubes using a C-Pace EP Cell Culture Stimulator (IonOptix; Milton, Mass.). […] Immediately prior to stimulation, day old media is removed and replaced with 5 ml of fresh differentiation media. For incubation experiments, differentiated myotubes are pre-treated with quercetin and/or other compounds. Approximately 18 hours prior and again immediately before electrical pulse stimulation, DMEM containing 2% horse serum or serum free media is replaced with the same media containing quercetin or other test compounds at varying concentrations. Samples from media from resting and contracted cells (with and without compound incubation) is analyzed enzymatically for lactate with a modified method of Lowry and Passonneau (A Flexible System of Enzymatic Analysis, pages 194-199, Academic Press, INC. 1972 hereby incorporated by reference in its entirety.) The effect of quercetin on lactate concentration of muscle cells subjected to electrical pulse stimulation as generally described in Example 1 and Example 2 was studied. […] Media was changed every 24 hours. After 48 hours, growth media was replaced with AIM 5 differentiation media which was also changed every 24 hours. […] Lactate concentrations were measured with the Enzychrom L-Lactate Kit as follows. […] The optical density (OD0) was read for time “zero” at 565 nm and OD20 after a […] incubation at room temperature.
# trained cyclists = test: Onset of blood lactate accumulation (OBLA) test, incremental cycling exercise; assay type: in vivo
# Procedure: Two tests were performed to determine whether quercetin lowers blood lactate or improves maximal lactate steady state: a VO2PEAK test and an onset of blood lactate accumulation [OBLA] test. These tests were performed in a laboratory maintained at 20-25° C. and 35-40% relative humidity with the participants exercising on a Velotron bicycle trainer (Velotron Pro, RacerMate Inc, Seattle, Wash.) calibrated according to manufacturer's recommendations. VO2PEAK was determined using an incremental multistage cycling protocol: following a 10-min warm-up at 100 W, participants cycled at 150 W for five minutes then power output was increased by 50 W every three minutes until 250 W after which power output was increased by 25 W every minute until volitional exhaustion. Oxygen consumption (VO2) and carbon dioxide production (VCO2) were computed from expiratory gases collected and analyzed with a MOXUS metabolic cart (AEI Technologies, Pittsburgh, Pa.). OBLA was determined on a second occasion, separated from the measurement of VO2PEAK by at least seven days. The participants exercised for 3.5 minute stages at 55, 60, 65, 70, 75, 80, 85, and 90% VO2PEAK, and 3-mL blood samples were collected during the final 30 sec of each stage for measuring blood lactate concentration, OBLA was determined using curve fitting techniques and expressed as a percentage of VO2PEAK. OBLA was determined before and after 28 days of quercetin supplementation (1000 mg/d) contained in a 2% carbohydrate beverage with electrolytes and vitamins C and B3.
smiles,measurement,setting,value
O=c1c(O)c(-c2ccc(O)c(O)c2)oc2cc(O)cc(O)c12 [quercetin],day 5 lactate concentration post stimulus,"C2C12 cells; plate C (primed days 3 and 4, quercetin days 3, 4, 5) vs plate A without quercetin, 60 minutes low intensity stimulation (10V/0.5 hz/24 ms), FIG. 5",lower day 5 lactate concentration post stimulus
same,day 5 lactate concentration post stimulus,"C2C12 cells; plate D (primed days 3 and 4, quercetin days 3, 4, 5) vs plate B without quercetin, 60 minutes high intensity stimulation (10V/4 hz/2 ms), FIG. 6",lower day 5 lactate concentration post stimulus
same,day 5 lactate concentration post stimulus,"C2C12 cells; plate E (no priming, quercetin day 5 only) vs plate F without quercetin, 60 minutes high intensity stimulation (10V/4 hz/2 ms), FIG. 7",lower day 5 lactate concentration post stimulus
same,improvement of the % VO2 Peak where the cyclist achieved a blood lactate concentration of 4 mmol,"trained cyclists; after quercetin administration vs before, FIG. 1",about 3%
same,% VO2 Peak to achieve a 4 mmol blood lactate concentration,"trained cyclists; after quercetin administration, about 71% before, FIG. 1",about 73%
same,cycling power output required to elicit a 4 mmol blood lactate,"trained cyclists; endurance cyclists, after 28 days of quercetin administration (1000 mg/d), 244 W before",250 W
same,increase in cycling power output required to elicit a 4 mmol blood lactate,"trained cyclists; endurance cyclists, before vs after 28 days of quercetin administration (1000 mg/d), FIG. 1",6 watts (W)
